From patent publication US10265321B2, “Uses of salt-inducible kinase (SIK) inhibitors” (Dana-Farber Cancer Institute, Inc., priority 2014, dated 2019)
pEC50, pIC50: −log10 of the molar value.

Experiments:
[1] = test system: IL-10 production by zymosan-stimulated BMDCs; assay: IL-10 up-regulation in zymosan-stimulated BMDCs (AlphaLISA/ELISA); format: cell-based, mouse; conditions: for pEC50: Mus musculus, BMDC, read-out: IL-10 induction EC50; for effect on IL-10 production by BMDCs (in words): kinase inhibitor screen / PGE2 control
Protocol: (§1) Bone marrow-derived DCs were differentiated from C57BL/6 bone marrow in the presence of GM-CSF-conditioned media. CD11c^+ CX3CR1^hi myeloid cells and CD11c^+ CX3CR1^− DCs were isolated from the small intestine lamina propria of Cx3cr1^eGFP/+ mice (12). Detection of cell-surface Thy1.1 expression on BMDCs from 10BiT reporter mice was conducted as described previously (24). Cell viability was estimated by change in total cellular ATP levels using CellTiterGlo assays (Promega). Preparation of recombinant SIK proteins and IC50 measurements were conducted as described previously (21). Total RNA was extracted using a NucleoSpin 96 RNA isolation kit (Macherey-Nagel) followed by cDNA synthesis and multiplex RT-PCR using a microfluidic dynamic array (Fluidigm). The concentrations of TNF-α, IL-6, IL-10, IL-12p40, IL-1β and RANTES in culture supernatants were detected using a FlexSet Cytometric bead array (BD Biosciences). Alternatively, IL-10 secretion was quantified using ELISA (BD Biosciences) or AlphaLISA (PerkinElmer) assays. NO production was estimated based on nitrate content in culture medium using the Greiss reagent.
(§2) C57BL/6 mice were euthanized and bone marrow harvested from femurs and tibias as described previously (Graham D B, et al. (2007) An ITAM-signaling pathway controls cross-presentation of particulate but not soluble antigens in dendritic cells. The Journal of experimental medicine 204(12):2889-2897). BMDCs were differentiated DMEM supplemented with 2 mM GlutaMAX, 10% (vol/vol) FBS, penicillin, streptomycin and 2% mouse GM-CSF conditioned media derived from TOPO cells. Cultures were differentiated for 7 days and routinely analyzed for >90% CD11c (APC anti-CD11c clone HL3; BD Biosciences) positivity by flow cytometry before use in experiments. Lentiviral transduction of bone marrow cultures was conducted by addition of 293T culture supernatants containing lentiviral particles encoding the CREB dependent luciferase reporter construct or CRTC3 targeting or control shRNAs one day post-isolation. Stable integration of lentiviral shRNA constructs was selected by addition of puromycin (3 μg/mL) on day 4 post-transduction. After 2 days, stably transduced BMDCs were released from selection and used in subsequent assays. Unless otherwise indicated, cells were treated for 2 days with PGE2 (5 μM) or HG-9-91-01 (0.5 μM) or an equivalent concentration of DMSO (≤0.5%) and then stimulated for 18 hr with LPS (100 ng/mL), R848 (10 μg/mL) or zymosan (4 μg/mL).
BMDCs were seeded into black 384-well plates (Corning) at 20,000 cells/well in 40 μL complete DMEM using a Multidrop COMBI (Thermal Scientific) followed by incubation at 37° C. for 2 hr to allow for plate adherence. SIK inhibitors (100 nL/well) were pin-transferred from concentrated DMSO stocks using CyBi-Well Vario (CyBio) into duplicate plates. For each treatment plate, 32 out of 384 wells were pinned with DMSO as negative control and 32 out of 384 wells were pinned with PGE2 (5 μM final concentration). Two days after SIK inhibitor treatment, BMDCs were stimulated with zymosan (4 μg/mL final concentration) dispersed in culture medium (20 μL/well) using a Multidrop COMBI. After 18 hr, 5 μL of resulting supernatant was transferred from the culture plate to white 384-well AlphaLISA plates (Perkin Elmer) using a CyBi-Well Vario. IL-10 abundance in the supernatants was determined using an AlphaLISA assay (PerkinElmer) according to the manufacture's protocol and signal intensity measured using an EnVision multimode plate reader. SIK inhibitor activity was expressed as a % of the differences between the mean abundance of IL-10 in PGE2 versus DMSO wells on a per plate basis. Cell viability assays were conducted on the same tissue culture plates as the IL-10 assay. First media was removed and replaced by solution of 50% (vol/vol) CellTiter-Glo (Promega) in PBS. […]

BMDCs [2] = assay: Cell viability of BMDCs (CellTiter-Glo, cellular ATP); format: cell-based, mouse; conditions: for pEC50: Mus musculus, BMDC, zymosan-stimulated BMDCs, read-out: Viability loss EC50
Protocol: as §1
BMDCs were seeded into black 384-well plates (Corning) at 20,000 cells/well in 40 μL complete DMEM using a Multidrop COMBI (Thermal Scientific) followed by incubation at 37° C. for 2 hr to allow for plate adherence. SIK inhibitors (100 nL/well) were pin-transferred from concentrated DMSO stocks using CyBi-Well Vario (CyBio) into duplicate plates. For each treatment plate, 32 out of 384 wells were pinned with DMSO as negative control and 32 out of 384 wells were pinned with PGE2 (5 μM final concentration). Two days after SIK inhibitor treatment, BMDCs were stimulated with zymosan (4 μg/mL final concentration) dispersed in culture medium (20 μL/well) using a Multidrop COMBI. After 18 hr, 5 μL of resulting supernatant was transferred from the culture plate to white 384-well AlphaLISA plates (Perkin Elmer) using a CyBi-Well Vario. IL-10 abundance in the supernatants was determined using an AlphaLISA assay (PerkinElmer) according to the manufacture's protocol and signal intensity measured using an EnVision multimode plate reader. SIK inhibitor activity was expressed as a % of the differences between the mean abundance of IL-10 in PGE2 versus DMSO wells on a per plate basis. Cell viability assays were conducted on the same tissue culture plates as the IL-10 assay. First media was removed and replaced by solution of 50% (vol/vol) CellTiter-Glo (Promega) in PBS. Luminescence was read using an Envision multimode plate reader, and signal intensity calculated relative to DMSO control wells on a per plate basis.

SIK1 = target: T1, SIK1 (Homo sapiens, UniProt P57059); assay: Protein kinase assay ([γ-32P] ATP, phosphocellulose paper) against SIK1; format: biochemical; conditions: 1 μM; DMSO set to 100%; read-out: Activity of protein kinase treated with 1 μM of I-1 (% control (DMSO)) SIK1
T1 construct: made in house
Protocol: as §1, with “Total RNA was extracted using a NucleoSpin 96 RNA isolation kit (Macherey-Nagel) followed by cDNA synthesis and multiplex RT-PCR using a microfluidic dynamic array (Fluidigm).” left out, “NO production was estimated based on nitrate content in culture medium using the Greiss reagent.” left out
In another set of experiments, the activities of the SIK inhibitors described herein against SIK were determined according to the methods reported in Hastie et al., Nature Protocols, 2006, 1, 968-971. […]
The specific activity of the [γ-^32P] […] To measure the concentration of ATP, a sample of such a stock solution was diluted to 20 μM, and the absorbance of the diluted sample was measured at 259 nm. The absorbance of a 20-μM stock solution of ATP at 259 nm was about 0.31. […] ATP to produce a radioactivity of 1×10^5 to 1×10^6 c.p.m. per nmol. […]

SIK2 = target: T2, SIK2 (Homo sapiens, UniProt Q9H0K1); assay: Protein kinase assay ([γ-32P] ATP, phosphocellulose paper) against SIK2; format: biochemical; conditions: for pIC50: read-out: Enzyme Inhibition IC50 SIK2
T2 construct: made in house
Protocol: as §1
(§3) In another set of experiments, the activities of the SIK inhibitors described herein against SIK were determined according to the methods reported in Hastie et al., Nature Protocols, 2006, 1, 968-971.
(§4) This buffer consisted of 50 mM Tris-HCl, pH 7.5, 0.1 mM EGTA, 1 mg ml^−1 bovine serum albumin and 0.1% (vol/vol) 2-mercaptoethanol.
(§5) An assay buffer of 500 mM Tris-HCl, pH 7.5, 1 mM EGTA, and 100 mM magnesium acetate was used for the protein kinase assay.
(§6) The specific activity of the [γ-^32P] ATP solution was 1×10^5 to 1×10^6 c.p.m. per nmol depending on what was needed to produce an optimal signal/noise ratio. Stocks of nonradioactive (“cold”) ATP were dissolved in 10 mM HEPES, and the pH of the resulting stock solutions was adjusted to 7.4. To measure the concentration of ATP, a sample of such a stock solution was diluted to 20 μM, and the absorbance of the diluted sample was measured at 259 nm. The absorbance of a 20-μM stock solution of ATP at 259 nm was about 0.31. The 1-mM solution of cold ATP was “spiked” with [γ-^32P] ATP to produce a radioactivity of 1×10^5 to 1×10^6 c.p.m. per nmol.
(§7) 1) The number of assay samples needed was determined based on, e.g., the following considerations: (i) each condition was assayed in duplicate; (ii) two controls containing peptide or protein substrate and ATP but no SIK were included to assess contamination by any free ATP not incorporated into substrate, alongside two controls lacking a peptide or protein substrate but containing ATP and SIK to correct for any incorporation of phosphate into the kinase itself (e.g., autophosphorylation); and (iii) a maximum of 40 samples were assayed manually at one time by a single person. Microcentrifuge tubes were label distinctly and were placed on ice.
(§8) 4) Dilute the SIK in enzyme dilution buffer and place on ice.
(§9) 5) Pipette 5 j±l of 10× concentrated assay buffer, 5 j±l peptide or protein substrate (the two “no-substrate” control tubes had 5 j±l water added instead of peptide or protein substrate), and 30 μl distilled water into each tube. Keep the tubes on ice.
(§10) 6) Add 5 μl diluted SIK to each tube, except for the two “no-enzyme” control tubes, which had 5 μl enzyme dilution buffer added, and still keeping the tubes on ice. In some cases, premixed “cocktails” of assay components were prepared containing peptide or protein substrate, assay buffer, and distilled water to limit the number of additions to each assay tube. Each of steps 7 to 14 was done behind a plexiglass shield.
(§11) 7) Insert each tube into the water bath at intervals of 15 s to allow the assay mixture to reach 30° C. Begin the SIK reactions by adding 5 μl of 1 mM [γ-^32P] ATP to each tube at intervals of 15 s. Close each tube, vortex for 1 s to mix the contents and immediately replace in a rack in the water bath. Incubate for 10 min at 30° C. […]

SIK3 = target: T3, SIK3 (Homo sapiens, UniProt Q9Y2K2); assay: Protein kinase assay ([γ-32P] ATP, phosphocellulose paper) against SIK3; format: biochemical; conditions: read-out: Enzyme Inhibition IC50 SIK3
T3 construct: made in house
Protocol: as §1, §3, §4, §5, §6, §7, §8, §9, §10, §11

BMDCs [3] = assay: Multiplex qPCR of transcripts in stimulated BMDCs; format: cell-based, mouse; conditions: 2 days pre-treatment, 4 hr LPS, R848 or zymosan
Protocol: as §1
as §2, with “Unless otherwise indicated, cells were treated for 2 days with PGE2 (5 μM) or HG-9-91-01 (0.5 μM) or an equivalent concentration of DMSO (≤0.5%) and then stimulated for 18 hr with LPS (100 ng/mL), R848 (10 μg/mL) or zymosan (4 μg/mL).” left out
Total RNA was extracted using a NucleoSpin 96 RNA isolation kit (Macherey-Nagel). […] Relative gene expression was calculated from Ct values and normalized against ACTB mRNA levels as described previously (Pfaffl MW (2001) A new mathematical model for relative quantification in real-time RT-PCR. Nucleic acids research 29(9):e45). […]

BMDCs [4] = assay: Cytokine (cytometric bead array) and NO (Greiss) production by stimulated BMDCs; format: cell-based, mouse
Protocol: as §1, §2
After stimulation of cells with microbial ligands, the culture medium was removed, clarified by centrifugation for 10 min at 14,000×g, and the concentration of TNF-α, IL-6, IL-10, IL-12p40, IL-1β and RANTES were measured using FlexSet Cytokine Bead Array (BD Biosciences) according to the manufacturer's instructions. Where indicated, ELISAs were used to detect IL-10 and IL-12p70 (BD Biosciences) according to the manufacturer's instructions. NO production was estimated based on nitrate content in culture medium using the Greiss reagent as described previously (Miletic A V, et al. (2007) Vav proteins control MyD88-dependent oxidative burst. Blood 109(8):3360-3368).

T3 sequence (Q9Y2K2 whole entry): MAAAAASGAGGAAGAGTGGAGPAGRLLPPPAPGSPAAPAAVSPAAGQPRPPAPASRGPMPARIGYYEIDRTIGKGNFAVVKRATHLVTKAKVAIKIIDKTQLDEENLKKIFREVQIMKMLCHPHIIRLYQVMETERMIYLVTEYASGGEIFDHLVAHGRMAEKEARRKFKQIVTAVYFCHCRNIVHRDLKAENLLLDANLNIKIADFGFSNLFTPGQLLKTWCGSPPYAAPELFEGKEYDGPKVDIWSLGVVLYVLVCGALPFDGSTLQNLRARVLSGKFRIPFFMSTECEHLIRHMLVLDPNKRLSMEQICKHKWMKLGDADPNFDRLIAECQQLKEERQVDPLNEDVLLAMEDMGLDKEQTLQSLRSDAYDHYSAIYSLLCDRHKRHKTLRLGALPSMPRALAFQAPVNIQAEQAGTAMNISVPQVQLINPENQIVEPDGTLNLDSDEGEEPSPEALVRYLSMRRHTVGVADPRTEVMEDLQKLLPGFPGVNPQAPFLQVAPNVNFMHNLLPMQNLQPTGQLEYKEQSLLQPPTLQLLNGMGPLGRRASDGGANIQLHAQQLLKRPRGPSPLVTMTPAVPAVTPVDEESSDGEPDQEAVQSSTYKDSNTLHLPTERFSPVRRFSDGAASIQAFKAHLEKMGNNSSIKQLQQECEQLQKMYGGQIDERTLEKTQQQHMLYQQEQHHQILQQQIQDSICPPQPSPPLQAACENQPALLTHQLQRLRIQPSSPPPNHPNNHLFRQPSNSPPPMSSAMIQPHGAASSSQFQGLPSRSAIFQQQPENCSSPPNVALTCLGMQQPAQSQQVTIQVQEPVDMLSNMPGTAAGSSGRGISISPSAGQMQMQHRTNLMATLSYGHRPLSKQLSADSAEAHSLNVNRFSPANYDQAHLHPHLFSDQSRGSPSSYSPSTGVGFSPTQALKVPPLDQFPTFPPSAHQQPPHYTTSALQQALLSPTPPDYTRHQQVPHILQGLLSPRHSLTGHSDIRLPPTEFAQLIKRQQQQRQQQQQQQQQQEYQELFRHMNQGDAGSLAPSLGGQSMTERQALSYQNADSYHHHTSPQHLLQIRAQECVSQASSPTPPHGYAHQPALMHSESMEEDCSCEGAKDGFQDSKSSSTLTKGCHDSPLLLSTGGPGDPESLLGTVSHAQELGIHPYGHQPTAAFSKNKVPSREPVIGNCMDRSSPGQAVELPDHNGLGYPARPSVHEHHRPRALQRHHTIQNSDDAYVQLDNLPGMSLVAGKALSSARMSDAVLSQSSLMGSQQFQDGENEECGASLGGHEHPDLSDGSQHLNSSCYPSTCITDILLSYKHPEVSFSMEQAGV
T2 sequence (Q9H0K1 whole entry): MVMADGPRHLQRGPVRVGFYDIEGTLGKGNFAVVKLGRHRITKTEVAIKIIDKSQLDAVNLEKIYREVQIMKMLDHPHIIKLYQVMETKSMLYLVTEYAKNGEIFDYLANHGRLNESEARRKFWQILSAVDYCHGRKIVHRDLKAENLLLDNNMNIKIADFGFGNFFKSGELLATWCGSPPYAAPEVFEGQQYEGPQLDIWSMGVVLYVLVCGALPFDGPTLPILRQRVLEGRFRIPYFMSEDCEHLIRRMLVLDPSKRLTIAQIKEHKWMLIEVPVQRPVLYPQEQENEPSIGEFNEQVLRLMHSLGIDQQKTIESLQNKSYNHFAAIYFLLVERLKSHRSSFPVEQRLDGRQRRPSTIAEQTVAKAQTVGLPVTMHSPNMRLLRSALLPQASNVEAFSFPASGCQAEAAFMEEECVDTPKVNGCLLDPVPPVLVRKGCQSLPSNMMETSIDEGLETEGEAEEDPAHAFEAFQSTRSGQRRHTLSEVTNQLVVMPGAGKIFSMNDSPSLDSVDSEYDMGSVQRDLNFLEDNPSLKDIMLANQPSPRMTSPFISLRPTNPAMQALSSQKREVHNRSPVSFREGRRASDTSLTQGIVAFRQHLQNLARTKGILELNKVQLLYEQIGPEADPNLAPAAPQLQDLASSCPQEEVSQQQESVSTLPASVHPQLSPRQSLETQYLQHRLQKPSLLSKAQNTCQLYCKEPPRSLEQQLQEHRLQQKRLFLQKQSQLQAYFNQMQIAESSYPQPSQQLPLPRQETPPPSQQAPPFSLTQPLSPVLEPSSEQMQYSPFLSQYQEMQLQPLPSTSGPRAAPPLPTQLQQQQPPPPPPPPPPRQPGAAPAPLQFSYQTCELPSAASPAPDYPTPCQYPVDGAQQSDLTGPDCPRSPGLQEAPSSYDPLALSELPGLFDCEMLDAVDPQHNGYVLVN
T1 sequence (P57059 whole entry): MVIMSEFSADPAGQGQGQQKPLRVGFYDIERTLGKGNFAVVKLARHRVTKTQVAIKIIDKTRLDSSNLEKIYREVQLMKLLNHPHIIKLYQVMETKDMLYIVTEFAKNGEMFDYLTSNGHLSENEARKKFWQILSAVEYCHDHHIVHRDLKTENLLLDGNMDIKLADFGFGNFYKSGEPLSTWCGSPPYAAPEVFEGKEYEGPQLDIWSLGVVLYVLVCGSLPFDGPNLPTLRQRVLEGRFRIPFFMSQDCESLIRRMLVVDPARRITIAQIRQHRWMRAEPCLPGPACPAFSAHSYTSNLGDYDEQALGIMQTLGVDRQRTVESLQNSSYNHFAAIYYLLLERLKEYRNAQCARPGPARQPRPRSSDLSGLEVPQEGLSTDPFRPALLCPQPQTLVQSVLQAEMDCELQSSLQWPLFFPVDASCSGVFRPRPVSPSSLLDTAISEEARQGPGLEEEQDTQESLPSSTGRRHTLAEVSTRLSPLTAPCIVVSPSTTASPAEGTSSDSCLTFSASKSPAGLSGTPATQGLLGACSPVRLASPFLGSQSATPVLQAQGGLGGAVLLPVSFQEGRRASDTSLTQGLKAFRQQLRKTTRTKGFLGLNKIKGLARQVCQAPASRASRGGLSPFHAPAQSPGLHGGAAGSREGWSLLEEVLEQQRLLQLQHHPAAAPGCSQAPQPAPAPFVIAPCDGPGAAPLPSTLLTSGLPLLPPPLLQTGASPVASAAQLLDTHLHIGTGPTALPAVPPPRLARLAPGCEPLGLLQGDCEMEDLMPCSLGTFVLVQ

## Cc1c[nH]c(-c2cnc(NCCNc3ccc(C#N)cn3)nc2-c2ccc(Cl)cc2Cl)n1 [CHIR-99021, reference compound]
[1]; zymosan-stimulated BMDCs, hit criterion
  maximum effect on IL-10 production: > 30 % of the PGE2 response
BMDCs [2]
  viability of BMDCs (in words): reduced viability

## CCN1CCN(CCOc2ccc3cc2COC/C=C/CN(C(=O)Oc2c(C)cccc2C)c2ccnc(n2)N3)CC1 [I-2]
SIK1
  remaining activity at 1 µM: 15.9%
SIK2; 1 μM, DMSO set to 100%, read-out: Activity of protein kinase treated with 1 μM of I-1 (% control (DMSO)) SIK2
  remaining activity at 1 µM: 15%
SIK2
  pIC50: 7.06
SIK3
  pIC50: 6.35
BMDCs [2]
  pEC50: 5.18

## Cc1cccc(C)c1OC(=O)N1C/C=C/COCc2cc(ccc2OCCN2CCC(O)CC2)Nc2nccc1n2 [I-4]
SIK2
  pIC50: 7.03
SIK3
  pIC50: 6.39
[1]; zymosan-stimulated BMDCs
  pEC50: 4.98
BMDCs [2]
  pEC50: 5.30

## Cc1cccc(C)c1OC(=O)N1C/C=C\COCc2cc(ccc2OCCN2CCC(O)CC2)Nc2nccc1n2 [I-5]
SIK2
  pIC50: 7.92
SIK3
  pIC50: 7.13
[1]; zymosan-stimulated BMDCs
  pEC50: 4.62
BMDCs [2]
  pEC50: 5.21

## CCCCC[C@H](O)/C=C/[C@H]1[C@H](O)CC(=O)[C@@H]1C/C=C\CCCC(=O)O [PGE2, prostaglandin E2, reference compound]
[1]
  effect on IL-10 production by BMDCs (in words): increased levels of IL-10
BMDCs [3]
  IL-10 mRNA levels: robustly enhanced
  abundance of Arg1 and Nos2 transcripts: highly induced
BMDCs [4]; BMDCs pre-treated, LPS, R848 or zymosan 18 hr
  IL-10 secretion: similarly induced
BMDCs [4]; BMDCs, stimulation with R848 or zymosan
  IL-1β production: enhanced
BMDCs [4]; BMDCs, zymosan stimulation, relative to HG-9-91-01-treated
  NO production: increased NO production

## COc1cc(N2CCC(N3CCN(C)CC3)CC2)ccc1Nc1ncc(Cl)c(Nc2ccccc2S(=O)(=O)C(C)C)n1 [TAE-684, reference compound]
BMDCs [2]
  viability of BMDCs (in words): reduced viability

## COc1cc(Nc2c(C#N)cnc3cc(OCCCN4CCN(C)CC4)c(OC)cc23)c(Cl)cc1Cl [bosutinib, reference compound]
BMDCs [2]
  viability of BMDCs (in words): reduced viability

## Cc1ccc(NC(=O)c2ccc(CN3CCN(C)CC3)cc2)cc1Nc1nccc(-c2cccnc2)n1 [imatinib, reference compound]
[1]
  effect on IL-10 production by BMDCs (in words): did not up-regulate IL-10 production
BMDCs [2]
  viability of BMDCs (in words): non-toxic

## CN1CCN(CCOc2cc(OC3CCOCC3)c3c(Nc4c(Cl)ccc5c4OCO5)ncnc3c2)CC1 [saracatinib, reference compound]
BMDCs [2]
  viability of BMDCs (in words): reduced viability
